In the NIST ThermoML archive (doi:10.1016/j.fluid.2006.09.019):

Conditions: Liquid

COC(=O)CO [methyl hydroxyethanoate]
Conditions	vapor or sublimation pressure [kPa]
293.23 K	0.4864
303.17 K	0.8459
313.27 K	1.409
323.12 K	2.311
333.28 K	3.738
343.26 K	5.905
353.25 K	9.292
